Results from PubChem BioAssay (NCI).
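96-well plates; 48 h exposure; 5 concentrations. Endpoints by linear interpolation between flanking doses. Not reached: highest tested concentration assigned. Abbreviation: GI50, concentration required for 50% inhibition of growth. At the TGI there is no net growth.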

How the values were obtained:
Assay in all cases: NCI-60 cell line screen, 48 h
SK-MEL-5 melanoma = system: SK-MEL-5 melanoma
NCI-H460 lung = system: NCI-H460 lung
SW-620 colon = system: SW-620 colon
NCI-H23 lung = system: NCI-H23 lung
NCI-H522 lung = system: NCI-H522 lung
LOX IMVI melanoma = system: LOX IMVI melanoma
HOP-92 NSCLC = system: HOP-92 NSCLC
HCT-15 colon = system: HCT-15 colon
SF-295 CNS = system: SF-295 CNS
MDA-MB-231 breast = system: MDA-MB-231 breast

O=C(Oc1cccnc1)c1ccsc1Nc1ccnc(C(F)(F)F)c1 gave a GI50 (SK-MEL-5 melanoma) of 5.26 µM, a TGI (SK-MEL-5 melanoma) of 30.1 µM and a GI50 (NCI-H460 lung) of 17.7 µM. The TGI (NCI-H460 lung) was > 100 µM, the GI50 (SW-620 colon) was 4.09 µM and the TGI (SW-620 colon) was > 100 µM. For the same compound, the GI50 (NCI-H23 lung) was 4.07 µM, the TGI (NCI-H23 lung) was > 100 µM and the GI50 (NCI-H522 lung) was 2.36 µM. For the same compound, the TGI (NCI-H522 lung) was 8.36 µM, the GI50 (LOX IMVI melanoma) was 3.19 µM and the TGI (LOX IMVI melanoma) was > 100 µM. The GI50 (HOP-92 NSCLC) was 3.14 µM, the TGI (HOP-92 NSCLC) was 46.5 µM and the GI50 (HCT-15 colon) was 3.49 µM. The TGI (HCT-15 colon) was > 100 µM, the GI50 (SF-295 CNS) was 24 µM and the TGI (SF-295 CNS) was > 100 µM. The GI50 (MDA-MB-231 breast) was 6.03 µM and the TGI (MDA-MB-231 breast) was > 100 µM.
CN(C)CC1CCCC1=O (stereo not drawn) was tested, and the TGI (SK-MEL-5 melanoma) was 6.71 µM, the TGI (NCI-H460 lung) was 34.6 µM and the TGI (SW-620 colon) was 0.517 µM. It also gave a TGI (NCI-H23 lung) of 11.7 µM, a TGI (LOX IMVI melanoma) of 4 µM and a TGI (HOP-92 NSCLC) of 2.97 µM. For the same compound, the TGI (HCT-15 colon) was 2.56 µM, the TGI (SF-295 CNS) was 35.8 µM and the TGI (MDA-MB-231 breast) was 7.06 µM.
CCCCCn1sc(=O)n(Cc2ccc(CNC(=O)OCc3ccc4cccc(O)c4n3)cc2)c1=O was tested, and the GI50 (SK-MEL-5 melanoma) was 1.69 µM, the TGI (SK-MEL-5 melanoma) was 3.07 µM and the GI50 (NCI-H460 lung) was 1.8 µM. For the same compound, the TGI (NCI-H460 lung) was 3.78 µM, the GI50 (SW-620 colon) was 1.25 µM and the TGI (SW-620 colon) was 2.83 µM. The GI50 (NCI-H23 lung) was 1.67 µM, the TGI (NCI-H23 lung) was 3.59 µM and the GI50 (NCI-H522 lung) was 1.07 µM. For the same compound, the TGI (NCI-H522 lung) was 2.74 µM, the GI50 (LOX IMVI melanoma) was 1.09 µM and the TGI (LOX IMVI melanoma) was 2.33 µM. The GI50 (HOP-92 NSCLC) was 1.21 µM, the TGI (HOP-92 NSCLC) was 2.97 µM and the GI50 (HCT-15 colon) was 1.44 µM. The TGI (HCT-15 colon) was 4.81 µM, the GI50 (SF-295 CNS) was 6.73 µM and the TGI (SF-295 CNS) was 20.1 µM. It also gave a GI50 (MDA-MB-231 breast) of 1.32 µM and a TGI (MDA-MB-231 breast) of 2.63 µM.
Compound CCN1C(=O)N(CC)C2C1NN=c1s/c(=C3\C(=O)N(CCc4ccccc4)c4ccccc43)c(=O)n12 (stereo not drawn) has a GI50 (SK-MEL-5 melanoma) of 0.305 µM, a TGI (SK-MEL-5 melanoma) of 1.23 µM and a GI50 (NCI-H460 lung) of 0.361 µM. The TGI (NCI-H460 lung) was 1.88 µM, the GI50 (SW-620 colon) was 0.492 µM and the TGI (SW-620 colon) was > 100 µM. It also gave a GI50 (NCI-H23 lung) of 0.794 µM, a TGI (NCI-H23 lung) of 14.3 µM and a GI50 (NCI-H522 lung) of 0.337 µM. The TGI (NCI-H522 lung) was 3.95 µM, the GI50 (LOX IMVI melanoma) was 0.527 µM and the TGI (LOX IMVI melanoma) was 4.94 µM. The GI50 (HOP-92 NSCLC) was 2.55 µM, the TGI (HOP-92 NSCLC) was 15.6 µM and the GI50 (HCT-15 colon) was 0.351 µM. For the same compound, the TGI (HCT-15 colon) was > 34.2 µM, the GI50 (SF-295 CNS) was 0.363 µM and the TGI (SF-295 CNS) was 7.75 µM. The GI50 (MDA-MB-231 breast) was 0.844 µM and the TGI (MDA-MB-231 breast) was 7.51 µM.
Cn1cc(-c2nonc2-c2cn(C)c3ccccc23)c2ccccc21 was tested, and the GI50 (SK-MEL-5 melanoma) was 1.34 µM, the TGI (SK-MEL-5 melanoma) was > 100 µM and the GI50 (NCI-H460 lung) was 0.579 µM. The TGI (NCI-H460 lung) was > 100 µM, the GI50 (SW-620 colon) was 0.425 µM and the TGI (SW-620 colon) was > 100 µM. For the same compound, the GI50 (NCI-H23 lung) was 1.98 µM, the TGI (NCI-H23 lung) was > 100 µM and the GI50 (NCI-H522 lung) was 0.402 µM. For the same compound, the TGI (NCI-H522 lung) was > 100 µM, the GI50 (LOX IMVI melanoma) was 1.24 µM and the TGI (LOX IMVI melanoma) was > 100 µM. The GI50 (HOP-92 NSCLC) was 4.16 µM, the TGI (HOP-92 NSCLC) was > 100 µM and the GI50 (HCT-15 colon) was 0.537 µM. For the same compound, the TGI (HCT-15 colon) was > 100 µM, the GI50 (SF-295 CNS) was 0.42 µM and the TGI (SF-295 CNS) was > 100 µM. For the same compound, the GI50 (MDA-MB-231 breast) was 1.35 µM and the TGI (MDA-MB-231 breast) was > 100 µM.
CN1CCN(CC(O)COc2c(Br)c(Br)c(Br)c3c2OC(C)(C)C3)CC1 (stereo not drawn) showed a GI50 (SK-MEL-5 melanoma) of 1.83 µM, a TGI (SK-MEL-5 melanoma) of 3.27 µM and a GI50 (NCI-H460 lung) of 3.1 µM. It also gave a TGI (NCI-H460 lung) of 10.6 µM, a GI50 (SW-620 colon) of 3.16 µM and a TGI (SW-620 colon) of 8.81 µM. For the same compound, the GI50 (NCI-H23 lung) was 14 µM, the TGI (NCI-H23 lung) was 34.1 µM and the GI50 (NCI-H522 lung) was 6.15 µM. It also gave a TGI (NCI-H522 lung) of 28.5 µM, a GI50 (LOX IMVI melanoma) of 1.92 µM and a TGI (LOX IMVI melanoma) of 3.36 µM. For the same compound, the GI50 (HOP-92 NSCLC) was 3.1 µM, the TGI (HOP-92 NSCLC) was 12.2 µM and the GI50 (HCT-15 colon) was 2.79 µM. It also gave a TGI (HCT-15 colon) of 6.16 µM, a GI50 (SF-295 CNS) of 1.79 µM and a TGI (SF-295 CNS) of 3.77 µM. The GI50 (MDA-MB-231 breast) was 2.56 µM and the TGI (MDA-MB-231 breast) was 6.8 µM.
In the case of CN(C)c1ccc(N=Nc2ccncc2)cc1, the TGI (SK-MEL-5 melanoma) is reported as > 100 µM, the TGI (NCI-H460 lung) is reported as > 100 µM and the TGI (SW-620 colon) is reported as > 100 µM. For the same compound, the TGI (NCI-H23 lung) was > 100 µM, the TGI (LOX IMVI melanoma) was > 100 µM and the TGI (HOP-92 NSCLC) was 98.6 µM. The TGI (HCT-15 colon) was > 100 µM, the TGI (SF-295 CNS) was > 100 µM and the TGI (MDA-MB-231 breast) was > 100 µM.
